Assay results reported in patent publication US20210371782A1, “METHODS FOR OPTICAL MICROPATTERNING OF HYDROGELS AND USES THEREOF” (President and Fellows of Harvard College, priority 2016, published 2021).

Test: Solubility in water of riboflavin types
Format: physicochemical
Conditions: compared with other types of riboflavin

solubility in water: most soluble in water
Structure (SMILES): Cc1cc2nc3c(=O)[nH]c(=O)nc-3n(C[C@H](O)[C@H](O)[C@H](O)COP(=O)(O)O)c2cc1C [riboflavin 5′ phosphate]
